12 compounds from patent US20260070945A1, “MACROCYCLIC IMMUNOMODULATORS” (Bristol-Myers Squibb Company, priority 2022, published 2026) can be followed below.

The term IC50 denotes the point on the concentration scale where inhibition reaches its midpoint.

*1 amine or outer side, *2 acyl side, *3 side chain or, on linkers, in order; H or OH if unused. Where a SMILES comes first, the peptide text is derived from it. Bridges are numbered along the chain shown (N, C = ends). [ ]: non-standard residue; d: D form. The star is where a group is joined. ξ: configuration not given here. Phe(4-CF3) = N[C@@H](Cc1ccc(C(F)(F)F)cc1)C(=O)O; Phe(4-COOH) = N[C@@H](Cc1ccc(C(=O)O)cc1)C(=O)O; Bip = N[C@@H](Cc1ccc(-c2ccccc2)cc1)C(=O)O; Phe(3-Me) = Cc1cccc(C[C@H](N)C(=O)O)c1; γGlu = O=C(O)[C@H](CCC(=O)[*:2])N[*:1]; X11 = CC[C@@H](C)C(N[*:1])C(=O)[*:2]; Val(3-OH) = CC(C)(O)[C@H](N)C(=O)O; aIle = CC[C@@H](C)[C@H](N)C(=O)O; hArg = N=C(N)NCCCC[C@H](N)C(=O)O; 4Pal = N[C@@H](Cc1ccncc1)C(=O)O; Cha = N[C@@H](CC1CCCCC1)C(=O)O; Ile(3ξ) = CCC(C)[C@H](N)C(=O)O; Thr(3ξ) = CC(O)[C@H](N)C(=O)O; Chg = N[C@H](C(=O)O)C1CCCCC1; dDab = NCC[C@@H](N)C(=O)O; 4Abz = Nc1ccc(C(=O)O)cc1; Carboxymethyl = O=C(O)C*; NMeA = CN[C@@H](C)C(=O)O; Orn = NCCC[C@H](N)C(=O)O; dDap = NC[C@@H](N)C(=O)O; Aun = NCCCCCCCCCCC(=O)O; Dab = NCC[C@H](N)C(=O)O; Dap = NC[C@H](N)C(=O)O; AEEA = NCCOCCOCC(=O)O

T1 sequence (Q15116 25-288): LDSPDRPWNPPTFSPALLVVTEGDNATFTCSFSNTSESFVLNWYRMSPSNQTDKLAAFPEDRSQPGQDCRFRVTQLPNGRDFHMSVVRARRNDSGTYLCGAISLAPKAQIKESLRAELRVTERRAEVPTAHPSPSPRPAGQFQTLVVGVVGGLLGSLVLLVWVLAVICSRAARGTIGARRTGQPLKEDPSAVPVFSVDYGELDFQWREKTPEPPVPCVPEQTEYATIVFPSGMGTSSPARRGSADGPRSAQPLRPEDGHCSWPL

The first experiment addresses T1, PD-1/PD-L1 interaction (PE-labeled human PD-L1-Ig binding to Jurkat cell line over-expressing human PD-1) (Homo sapiens, UniProt Q15116).
T1 construct: expressed in transfected cells; host or cells: Jurkat
Description: Jurkat-PD-1 Cell Binding High-Content Screening Assay (CBA). The following applies: Jurkat-hPD-1 cells, PE-labeled PD-L1-Ig 20 nM final; read-out: Jurkat HPD1 PDL1 IC50. The gist of the method: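 Cells 8×10^3/well, DMEM + 10% FCS; cpd 2 h, 37 °C; PE–PD-L1-Ig 20 nM final, 1 h; PFA fix + Hoechst 33342, 3× dPBS wash; high-content imager.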
Turning to `CC(C)C[C@H]1NC(=O)[C@H](C)N(C)C(=O)[C@H](C(C)C)NC(=O)[C@H](Cc2ccc(-c3ccccc3)cc2)NC(=O)[C@H](C2CCCCC2)NC(=O)[C@H](Cc2c[nH]c3ccccc23)NC(=O)[C@H](CC(=O)O)NC(=O)[C@H](CCCCNC(=N)N)NC(=O)[C@H](Cc2ccc(OCC(=O)O)cc2)NC(=O)CSC[C@@H](C(=O)N[C@@H](CCCCN)C(=O)NCCOCCOCC(=O)NCCCCCCCCCCC(=O)O)NC(=O)[C@H](CO)NC(=O)[C@H](C(C)C)NC(=O)[C@H](CC2CCCCC2)NC(=O)[C@H](CC(=O)O)NC1=O` [Example 2093] ({CH2CO}-Y(Carboxymethyl)[hArg]DW[Chg][Bip]V[NMeA][dL]D[Cha]VSCK[AEEA][Aun]-OH; thioether N-14), the IC50 is 21 nM. Still for that read-out and setting: the same measure for `Cc1cccc(C[C@@H]2NC(=O)[C@H](CC(=O)O)NC(=O)[C@H](Cc3ccc(OCC(=O)O)cc3)NC(=O)[C@H]([C@@H](C)O)NC(=O)CSC[C@@H](C(=O)N[C@H](C)C(=O)NCCOCCOCC(=O)NCCCCCCCCCCC(=O)O)NC(=O)[C@H](CCC(=O)O)NC(=O)[C@H](C(C)(C)O)NC(=O)[C@H](CC3CCCCC3)NC(=O)[C@H](CCN)NC(=O)[C@@H](CC(C)C)NC(=O)[C@H](C)N(C)C(=O)[C@H](Cc3ccc(OCC(=O)O)cc3)NC(=O)[C@H](Cc3ccc(-c4ccccc4)cc3)NC(=O)[C@H](Cc3ccc(OCC(=O)O)cc3)NC2=O)c1` [Example 1417] ({CH2CO}-TY(Carboxymethyl)D[Phe(3-Me)]Y(Carboxymethyl)[Bip]Y(Carboxymethyl)[NMeA][dL][Dab][Cha][Val(3-OH)]EC[dA][AEEA][Aun]-OH; thioether N-14): 379 nM; for `CC(C)C[C@@H]1NC(=O)[C@H](Cc2c[nH]c3ccccc23)NC(=O)[C@H](CC(=O)O)NC(=O)[C@H](Cc2ccc(OCC(=O)O)cc2)NC(=O)[C@H](Cc2ccc(OCC(=O)O)cc2)NC(=O)CSC[C@@H](C(=O)NCCOCCOCC(=O)N[C@@H](CCN)C(=O)NCCCCCCCCCCC(=O)O)NC(=O)[C@H](CCCN)NC(=O)[C@H](C(C)C)NC(=O)[C@H](CC2CCCCC2)NC(=O)[C@H](CCN)NC(=O)[C@@H](CC(C)C)NC(=O)[C@H](C)N(C)C(=O)[C@H](C(C)C)NC(=O)[C@H](Cc2ccc(-c3ccccc3)cc2)NC1=O` [Example 2158] ({CH2CO}-Y(Carboxymethyl)Y(Carboxymethyl)DWL[Bip]V[NMeA][dL][Dab][Cha]V[Orn]C[AEEA][Dab][Aun]-OH; thioether N-14): 20 nM. As for `CC[C@@H](C)[C@@H]1NC(=O)[C@H](Cc2ccc(-c3ccccc3)cc2)NC(=O)[C@H](C(C)C)NC(=O)[C@H](Cc2c[nH]c3ccccc23)NC(=O)[C@H](CC(=O)O)NC(=O)[C@H](Cc2ccc(OCC(=O)O)cc2)NC(=O)[C@H](Cc2ccncc2)NC(=O)CSC[C@@H](C(=O)NCCOCCOCC(=O)N[C@@H](CCC(=O)NCCOCCOCC(=O)N[C@@H](CCC(=O)NCCOCCOCC(=O)N[C@@H](CCCN)C(=O)NCCCCCCCCCCC(=O)O)C(=O)O)C(=O)O)NC(=O)[C@H](CO)NC(=O)[C@H](C(C)C)NC(=O)[C@H](CC2CCCCC2)NC(=O)[C@H](CC(N)=O)NC(=O)[C@@H](CC(C)C)NC(=O)[C@H](C)N(C)C1=O` [Example 2019] ({CH2CO}-[4Pal]Y(Carboxymethyl)DWV[Bip][aIle][NMeA][dL]N[Cha]VSC[AEEA][γGlu][AEEA][γGlu][AEEA][Orn][Aun]-OH; thioether N-14), the concentration for half-maximal inhibition (IC50) was found to be 24.9 nM. Consider `CC(C)C[C@H]1NC(=O)[C@H](C)N(C)C(=O)[C@H](C(C)C)NC(=O)[C@H](Cc2ccc(-c3ccccc3)cc2)NC(=O)[C@H](C(C)C)NC(=O)[C@H](Cc2c[nH]c3ccccc23)NC(=O)[C@H](CC(=O)O)NC(=O)[C@H](Cc2ccc(C(=O)O)cc2)NC(=O)[C@H](Cc2ccc(OCC(=O)O)cc2)NC(=O)CSC[C@@H](C(=O)N[C@@H](CCCCN)C(=O)NCCOCCOCC(=O)NCCCCCCCCCCC(=O)O)NC(=O)[C@H](CO)NC(=O)[C@H](C(C)C)NC(=O)[C@H](CC2CCCCC2)NC(=O)[C@@H](CCN)NC1=O` [Example 2112] ({CH2CO}-Y(Carboxymethyl)[Phe(4-COOH)]DWV[Bip]V[NMeA][dL][dDab][Cha]VSCK[AEEA][Aun]-OH; thioether N-14), for which the IC50 came to 38.5 nM. With `CC[C@@H](C)C1NC(=O)[C@H](Cc2ccc(-c3ccccc3)cc2)NC(=O)[C@H](CC(C)C)NC(=O)[C@H](Cc2cccc(C)c2)NC(=O)[C@H](CC(=O)O)NC(=O)[C@H](Cc2ccc(O)cc2)NC(=O)[C@H](Cc2ccccc2)NC(=O)CSC[C@@H](C(=O)N[C@@H](CCN)C(=O)NCCCCCCCCCCC(=O)O)NC(=O)[C@H](CCCCN)NC(=O)[C@H](C(C)C)NC(=O)[C@H](CC(C)C)NC(=O)[C@H](CCN)NC(=O)[C@@H](C)NC(=O)[C@H](C)N(C)C1=O` (stereo partly drawn) [Example 2197] ({CH2CO}-FYD[Phe(3-Me)]L[Bip][X11][NMeA][dA][Dab]LVKC[Dab][Aun]-OH; thioether N-14), the IC50 is 94 nM. For `CC[C@H](C)[C@@H]1NC(=O)[C@H](Cc2ccc(-c3ccccc3)cc2)NC(=O)[C@H](CC(C)C)NC(=O)[C@H](Cc2c[nH]c3ccccc23)NC(=O)[C@H](CC(=O)O)NC(=O)[C@H](Cc2ccc(C(=O)O)cc2)NC(=O)[C@H](Cc2ccc(OCC(=O)O)cc2)NC(=O)CSC[C@@H](C(=O)N[C@@H](CCCN)C(=O)NCCCCCCCCCCC(=O)O)NC(=O)[C@H](CO)NC(=O)[C@H](C(C)C)NC(=O)[C@H](CC2CCCCC2)NC(=O)[C@H](CCN)NC(=O)[C@@H](CC(C)C)NC(=O)[C@H](C)N(C)C1=O` [Example 1072] ({CH2CO}-Y(Carboxymethyl)[Phe(4-COOH)]DWL[Bip]I[NMeA][dL][Dab][Cha]VSC[Orn][Aun]-OH; thioether N-14), the IC50 was 18.3 nM. Still for that read-out and setting: the same measure for `Cc1cccc(C[C@@H]2NC(=O)[C@H](CC(=O)O)NC(=O)[C@H](Cc3c[nH]cn3)NC(=O)[C@H](Cc3ccc(OCC(=O)O)cc3)NC(=O)CSC[C@@H](C(=O)NCCCCCCCCCCC(=O)O)NC(=O)[C@H](CO)NC(=O)[C@H](C(C)C)NC(=O)[C@H](CC3CCCCC3)NC(=O)[C@H](CCN)NC(=O)[C@@H](CC(C)C)NC(=O)[C@H](C)N(C)C(=O)[C@H](Cc3ccc(OCC(=O)O)cc3)NC(=O)[C@H](Cc3ccc(-c4ccccc4)cc3)NC(=O)[C@H](CC(C)C)NC2=O)c1` [Example 2252] ({CH2CO}-Y(Carboxymethyl)HD[Phe(3-Me)]L[Bip]Y(Carboxymethyl)[NMeA][dL][Dab][Cha]VSC[Aun]-OH; thioether N-14): 127 nM.

Turning to `CC(C)C[C@@H]1NC(=O)[C@H](Cc2c[nH]c3ccccc23)NC(=O)[C@H](CC(=O)O)NC(=O)[C@H](Cc2ccncc2)NC(=O)[C@H](Cc2ccc(OCC(=O)O)cc2)NC(=O)CSC[C@@H](C(=O)Nc2ccc(C(=O)NCCCCCCCCCCC(=O)O)cc2)NC(=O)[C@H](CN)NC(=O)[C@H](C(C)C)NC(=O)[C@H](CC2CCCCC2)NC(=O)[C@H](CCN)NC(=O)[C@@H](CC(C)C)NC(=O)[C@H](C)N(C)C(=O)[C@H](C(C)C)NC(=O)[C@H](Cc2ccc(-c3ccccc3)cc2)NC1=O` [Example 1211] ({CH2CO}-Y(Carboxymethyl)[4Pal]DWL[Bip]V[NMeA][dL][Dab][Cha]V[Dap]C[4Abz][Aun]-OH; thioether N-14), the IC50 was found to be 368 nM. On to `CC[C@@H](C)[C@@H]1NC(=O)[C@H](Cc2ccc(-c3ccccc3)cc2)NC(=O)[C@H](C(C)C)NC(=O)[C@H](Cc2c[nH]c3ccccc23)NC(=O)[C@H](CC(=O)O)NC(=O)[C@H](Cc2ccc(C(=O)O)cc2)NC(=O)[C@H](Cc2ccc(OCC(=O)O)cc2)NC(=O)CSC[C@@H](C(=O)N[C@H](CN)C(=O)NCCOCCOCC(=O)N[C@@H](CCC(=O)NCCOCCOCC(=O)N[C@@H](CCC(=O)NCCOCCOCC(=O)N[C@@H](CCCN)C(=O)NCCCCCCCCCCC(=O)O)C(=O)O)C(=O)O)NC(=O)[C@H](CO)NC(=O)[C@H](C(C)C)NC(=O)[C@H](CC2CCCCC2)NC(=O)[C@H](CC(N)=O)NC(=O)[C@@H](CC(C)C)NC(=O)[C@H](C)N(C)C1=O` [Example 2018] ({CH2CO}-Y(Carboxymethyl)[Phe(4-COOH)]DWV[Bip][aIle][NMeA][dL]N[Cha]VSC[dDap][AEEA][γGlu][AEEA][γGlu][AEEA][Orn][Aun]-OH; thioether N-14), for which the IC50 was 73.7 nM. Same read-out and setting: the figure for `CC(=O)NCCCC[C@@H]1NC(=O)[C@H](Cc2ccc(-c3ccccc3)cc2)NC(=O)[C@H](C(C)C)NC(=O)[C@H](Cc2cccc(C)c2)NC(=O)[C@H](CC(=O)O)NC(=O)[C@H](Cc2ccc(OCC(=O)O)cc2)NC(=O)[C@H](Cc2ccc(OCC(=O)O)cc2)NC(=O)CSC[C@@H](C(=O)N[C@@H](CCN)C(=O)NCCCCCCCCCCC(=O)O)NC(=O)[C@H](CO)NC(=O)[C@H](C(C)O)NC(=O)[C@H](CC2CCCCC2)NC(=O)[C@H](CCN)NC(=O)[C@@H](CC(C)C)NC(=O)[C@H](C)N(C)C1=O` (stereo partly drawn) [Example 2371] ({CH2CO}-Y(Carboxymethyl)Y(Carboxymethyl)D[Phe(3-Me)]V[Bip]K(Ac)[NMeA][dL][Dab][Cha][Thr(3ξ)]SC[Dab][Aun]-OH; thioether N-14) is 26.8 nM.

Still in this experiment, the particulars now being: PE-labeled PD-L1-Ig 20 nM final, Jurkat-hPD-1 cells; read-out: Jurkat HPD1 PDL1 IC50.
As to `CCC(C)[C@@H]1NC(=O)[C@H](Cc2ccc(-c3ccccc3)cc2)NC(=O)[C@H](Cc2ccc(C(F)(F)F)cc2)NC(=O)[C@H](Cc2c[nH]c3ccccc23)NC(=O)[C@H](CC(=O)O)NC(=O)[C@H](Cc2ccc(OCC(=O)O)cc2)NC(=O)[C@H](Cc2cnc[nH]2)NC(=O)CSC[C@@H](C(=O)N[C@@H](CCN)C(=O)NCCOCCOCC(=O)NCCCCCCCCCCC(=O)O)NC(=O)[C@H](CCC(=O)O)NC(=O)[C@H](C(C)(C)O)NC(=O)[C@H](CC2CCCCC2)NC(=O)[C@H](CCN)NC(=O)[C@@H](CC(C)C)NC(=O)[C@H](C)N(C)C1=O` (stereo partly drawn) [Example 2590] ({CH2CO}-HY(Carboxymethyl)DW[Phe(4-CF3)][Bip][Ile(3ξ)][NMeA][dL][Dab][Cha][Val(3-OH)]EC[Dab][AEEA][Aun]-OH; thioether N-14), the IC50 was found to be 185 nM.
